The source of these data is PMC5696480, “Azole sensitivity in Leptosphaeria pathogens of oilseed rape: the role of lanosterol 14α-demethylase” (Scientific Reports, 2017).

Structures are written as SMILES.

Assay in all cases: growth inhibition of complemented yeast YUG37::LbCYP51B, absorbance at […] nm
What all share (type): cell-based, Plenodomus biglobosus (Leptosphaeria biglobosa)
Holding throughout (conditions): whole-cell growth; SD GAL + RAF with doxycycline (native CYP51 repressed), 30 °C, 6 days; SD of two biological replicates

Assay [1] relates to T1, LbCYP51B.
T1 construct: gene CYP51B; protein identical in all 8 isolates; gene 1642 bp with one 58 bp intron

Assay [2] has as its system T1, LbCYP51B. The source holds these as a separate data set.
In assay [3] the test system is T1, LbCYP51B. The source holds these as a separate data set.

In the case of `C[Si](Cn1cncn1)(c1ccc(F)cc1)c1ccc(F)cc1` [flusilazole], the Flusilazole in the assay on LbCYP51B [1] was 0.032 (0.0056) µg ml^−1.

With `OC(Cc1ccccc1Cl)(Cn1cncn1)C1(Cl)CC1` (stereo not drawn) [prothioconazole-desthio], the Prothioconazole-desthio in the assay on LbCYP51B [2] is given as 0.0004 (0.0002) µg ml^−1.

For the compound `CC(C)(C)C(O)(CCc1ccc(Cl)cc1)Cn1cncn1` (stereo not drawn) [tebuconazole], the Tebuconazole in the assay on LbCYP51B [3] is listed as 0.0062 (0.0005) µg ml^−1.
